Test results taken from US9549949B2, “Antiviral agent” (NBC MESHTEC, INC., priority 2008, dated 2017).
Several values for one entry are separate records, joined by “and”; a condition that tells them apart may be missing. Equal entries are not always repeated. Where two headings read alike, the source gives them in different places.

Legend:
Type in all cases: cell-based
[1] = test system: feline calicivirus (F9 strain); assay: Virus inactivation, plaque assay on CrFK cells; conditions: non-enveloped feline calicivirus, time period as short as 1 minute
[2] = test system: influenza virus (influenza A/kitakyusyu/159/93 (H3N2)); assay: Virus inactivation, plaque assay on MDCK cells; conditions: enveloped influenza virus, time period as short as 1 minute
[3] = test system: influenza virus (influenza A/kitakyusyu/159/93 (H3N2))
[4] = conc. of substance 0.5 mass %, 10 minutes at room temperature, control (PBS) 128
[5] = conc. of substance 5 mass %, 10 minutes at room temperature, control (PBS) 128

Compound | virus inactivation activity (in words) [1] | virus inactivation activity (in words) [2] | HA titer [3, 4] | HA titer [3, 5] | HA titer [3]
[Cu+].[I-] [Example 1, Copper (I) iodide] | sufficiently high virus inactivation activity | sufficiently high virus inactivation activity | 32 | 8 | 
[I][Sb]([I])[I] [Example 3, Antimony (III) iodide] |  |  | 32 | 16 | 
[I][Ir]([I])([I])[I] [Example 4, Iridium (IV) iodide] |  |  | 64 | 32 | 
[I][Ge]([I])([I])[I] [Example 5, Germanium (IV) iodide] |  |  | <2 | <2 | 
[I][Ge][I] [Example 6, Germanium (II) iodide] |  |  | 2 | <2 | 
[I][Sn][I] [Example 7, Tin (II) iodide] |  |  | 2 | <2 | 
[I][Sn]([I])([I])[I] [Example 8, Tin (IV) iodide] |  |  | 2 | <2 | 
[I-].[Tl+] [Example 9, Thallium (I) iodide] |  |  | 64 | 32 | 
[I-].[I-].[I-].[I-].[Pt+4] [Example 11, Platinum (IV) iodide] |  |  | 64 | 32 | 
[I][Pd][I] [Example 12, Palladium (II) iodide] |  |  | 64 | 2 | 
[I][Bi]([I])[I] [Example 13, Bismuth (III) iodide] |  |  | 64 | 8 | 
[I][Au] [Example 14, Gold (I) iodide] |  |  | 64 | 4 | 
[Fe+2].[I-].[I-] [Example 16, Iron (II) iodide] |  |  | <2 | <2 | 
[Co+2].[I-].[I-] [Example 17, Cobalt (II) iodide] |  |  | 8 | <2 | 
[I][Ni][I] [Example 18, Nickel (II) iodide] |  |  |  |  | <2 and 4
[I-].[I-].[Zn+2] [Example 19, Zinc (II) iodide] |  |  | 4 | <2 | 
[I][In]([I])[I] [Example 21, Indium (III) iodide] |  |  | <2 | <2 | 
[Cl][Cu] [Example 22, Copper (I) chloride] | sufficiently high virus inactivation activity | sufficiently high virus inactivation activity | <2 | <2 | 
[Cu][Br] [Example 23, Copper (I) bromide] |  |  | 32 | <2 | 
CC(=O)[O-].[Cu+] [Example 24, Copper (I) acetate] |  |  |  |  | <2
N#C[S-].[Cu+] [Example 25, Copper (I) thiocyanate] |  |  | 64 | 16 | 
[Cu].[O]=[Cu] [Example 27, Copper (I) oxide] |  |  | 64 | 8 | 
Silver (I) iodide [Example 20] |  |  | 64 | 32 | 
